Results taken from a melting point compilation (Tetko et al.; mined from patent text by program, amines drawn as free bases though some values may be those of a salt).

Row | SMILES | melting point [°C]
1 | S=c1c2ccc(Cl)cc2nc2n1CCCCC2 | 99 to 101
2 | Cc1cccc2c1nc(COc1ccc(Cl)cc1)n2CCC(Cc1ccccc1)C(=O)O (configuration not stated) | 190 to 192
3 | Cn1c(CO)cnc1[N+](=O)[O-] | 142 to 144
4 | O=C(NCC1CC1)c1[nH]c2ccc(Cl)cc2c1S(=O)(=O)c1ccccc1 | 232 to 234
5 | COc1ccc2c(c1)c(CC(=O)Oc1ccc(CN3CCN(CC(C)(C)SN=O)CC3)cc1)c(C)n2C(=O)c1ccc(Cl)cc1 | 90 to 92
6 | C=C(C)Cn1ncc(Cl)c(Cl)c1=O | 52 to 54
7 | CCCC1=NN(c2ccc(S(=O)(=O)O)cc2)C(=O)C1=CNc1ccccc1CC | 205
8 | CC(C)(C)OC(=O)C[C@H](NS(=O)(=O)c1ccc2ccccc2c1)C(=O)O | 141
9 | CCOC(=O)C1=C(C(F)(F)F)NC(N)(C(F)(F)F)C(C(=O)OCC)S1 (configuration not stated) | 87.5 to 89
10 | O=C(O)COc1c(F)ccc(-c2c3ccccc3c(Br)c3sc4ccccc4c23)c1F | 195 to 197
11 | O=C1NC(=O)C(=Cc2ccc3c(c2)CCC(Cc2ccccc2)N3Cc2ccccc2)S1 (configuration not stated) | 199 to 201
12 | COc1c(F)cc(F)c(OC)c1-c1ccc(C[C@H](NC(=O)c2c(Cl)cccc2Cl)C(=O)O)cc1 | 201 to 202
13 | CCCCc1ccc(NC(=O)c2ccccc2C(c2ccc(O)cc2)c2ccc(O)cc2)cc1 | 119 to 121
14 | CCCc1c(OC(C(=O)O)c2ccc(Cl)c(Cl)c2)ccc(C(C)=O)c1O (configuration not stated) | 177 to 180
15 | C=CCOc1ccc2ccc(OCC(=O)OC)cc2c1 | 69 to 70
16 | Cc1cc(-c2ccccc2)n2nc(SCc3ccccc3)nc2n1 | 110 to 111
17 | CCCN(CCC)c1ccccc1C(C)C(C(N)=O)c1ccc(C(=O)O)cc1 (configuration not stated) | 175 to 178
18 | CNC(=S)C1=CC(C)(CF)Oc2ccc([N+](=O)[O-])cc21 (configuration not stated) | 141 to 144
19 | Cc1cc2c(cc1Br)-c1cc(C)c(Br)c(C)c1OP2(=O)O | 240
20 | Cn1cc(CCN2CCC3(CC2)CNC(=O)O3)c2ccccc21 | 158 to 161
21 | CC1CC(=O)NN=C1c1ccc(N)cc1 (single isomer, unassigned; (-)) | 203 to 204
22 | CC1(C)OC(=O)Nc2cc(-c3cccc(Cl)c3)sc21 | 123 to 125
23 | Cc1cccc(C(=O)P2(=O)Oc3ccccc3-c3ccccc32)c1 (configuration not stated) | 108 to 111
24 | Cn1cc(-c2cccc(N3Cc4cc(C(C)(C)C)ccc4C3=O)c2CO)nc(Nc2ccc(N3CCOCC3)cc2)c1=O | 225 to 227
25 | OC1CSC(Oc2cc(-c3ccnc(F)c3)cc(F)c2F)C(O)C1O (configuration not stated) | 184

Row | SMILES | melting point [°C]
26 | CN(CC(O)c1cccc(O)c1)C(=O)c1cnc(N(C)C)nc1-c1ccccc1 (configuration not stated) | 79 to 81
27 | CCCCc1c(C)c(NC(=O)CC(C)(C)C)c(C)c2c1OCC2c1ccc(C(C)C)cc1 (configuration not stated) | 149 to 151
28 | CCOC(=O)C(OC)C(=O)Nc1ccc(Br)cc1C (configuration not stated) | 93 to 95
29 | CCN1CC([N+](=O)[O-])=C(N(C)C)N(Cc2cccnc2)C1 | 97 to 98
30 | CCOc1ccccc1C=[N+]([O-])C1CCCCC1 | 124
31 | COc1ccccc1Oc1c(N=[N+]=[N-])nc(N2CCOCC2)nc1OCCOCc1ccccc1 | 146 to 148
32 | N#Cc1ccccc1Sc1ccccc1N | 86 to 89
33 | CCCN(CCC)CC(=O)Nc1cccc2c1C(=O)c1c(NC(=O)CN(CCC)CCC)cccc1C2=O | 129 to 130
34 | CN1C2CCC1CN(c1ccc3cc([N+](=O)[O-])ccc3n1)C2 | 152 to 154
35 | CCOC(=O)c1c(C(F)(F)F)nc(C(F)(F)Cl)c(C(=O)OC)c1NC(C)(C)C | 51.5 to 53
36 | COC(=O)c1c(C(=O)O)cc2ccc3c(c2c1-c1ccc2c(c1)OCO2)OCO3 | 273 to 275
37 | CCCc1c(OCCCOc2ccc(C(=O)CCl)c(OC)c2CCC)ccc2c1OC(C(=O)OC)CC2 (configuration not stated) | 47 to 49
38 | O=C1c2c(O)cccc2C(C(=O)C2CCCCC2)c2cccc(O)c21 | 220
39 | CC(C)(C)c1nc(Cl)n(-c2c(Cl)cc(Cl)cc2Cl)n1 | 98 to 98.5
40 | CCOC(=O)C1=C(COCC(C)N=[N+]=[N-])NC(C)=C(C(=O)OC)C1 (configuration not stated) | 115
41 | CN1C(=O)C(C(=O)Nc2ccc(Cl)c(Cl)c2)S(=O)(=O)c2cc(Cl)ccc21 (configuration not stated) | 176 to 178
42 | O=c1ccc(-c2ccc3c(c2)CCN(C2CCC2)CC3)n[nH]1 | 250 to 251
43 | Cc1ccc(C(=O)c2ccc(O)c(CC(=O)O)c2)cc1 | 218
44 | CC12CCC(=O)C=C1NCC1C2CCC2(C)C(C(=S)c3ccccn3)CCC12 (configuration not stated) | 190 to 202
45 | [N-]=[N+]=Nc1cc(Cl)nc(-c2ccco2)n1 | 117 to 119
46 | COc1cc2c(cc1OC)C(=O)C(CN1CCC(O)(c3ccccc3)CC1)CC2 (configuration not stated) | 175 to 177
47 | COC(=O)c1cc2ccc(C(=O)O)cc2[nH]1 | 270 to 272
48 | Cc1ccc(F)cc1C1CC(=O)c2c(C)cnnc2C1 (configuration not stated) | 127 to 128
49 | CC(SC1COC(c2ccc(C(=O)Nc3ccc(C#N)c(C#N)c3)cc2)OC1)C(O)(Cn1cncn1)c1ccc(F)cc1F (configuration not stated) | 182
50 | Cc1nn(C)c(C#N)c1[N+](=O)[O-] | 96 to 98

Row | SMILES | melting point [°C]
51 | CNc1ccccc1C(O)c1ccccc1 (configuration not stated) | 124 to 126
52 | N#Cc1cc(-n2cccc2)cnc1Cl | 144 to 146
53 | Nc1c(NCCCO)c(=O)c1=O | 256 to 258
54 | Cn1cc(C2=C(c3c4n(c5ccccc35)CC3CN(C(=O)OC(C)(C)C)CC3C4)C(=O)OC2=O)c2ccccc21 (configuration not stated) | 265 to 266
55 | Cc1ccc(-c2cccc(/C=C/C(=O)Nc3ccc(Cc4ccccn4)cc3)c2)cc1 | 169 to 171
56 | CCCn1c(C#N)c(Cl)n(-c2ccc(Cl)cc2)c1=O | 102 to 103
57 | CCCCCCCCCCCCCCCCCCOCC(COP(=O)([O-])OCC[N+](C)(C)C)Oc1ccon1 (racemic) | 115 to 125
58 | CCC1CCCCN1CCC(=O)N1c2ccccc2NC(=O)c2ccccc21 (configuration not stated) | 147 to 148
59 | CN(C)c1ccc(-n2ccn(C3CCc4ccccc4C3)c2=S)nn1 (configuration not stated) | 198 to 199
60 | COc1ccc(CC(=O)Nc2nc3c(ncn3C3CC(O)C(COC(c4ccccc4)(c4ccc(OC)cc4)c4ccc(OC)cc4)O3)c(=O)[nH]2)cc1 (configuration not stated) | 148 to 156
61 | COc1cc(Cc2ccc3nc(N)nc(N)c3c2)cc(OC)c1OC | 219 to 221
62 | CN1CCN(C(=O)/C=C/c2occc(=O)c2OCC(=O)OC(C)(C)C)CC1 | 124 to 125
63 | CC(=O)c1cc2c(s1)Oc1ccccc1N=C2N1CCN(C)CC1 | 143 to 144
64 | COc1ccc(-c2nc(Sc3ccncc3)[nH]c2-c2ccc(OC)cc2)cc1 | 177 to 179
65 | CCOCCOc1cccc(-c2ccc3c(c2)C=C(C(=O)Nc2ccc(CN(C)C4CCOCC4)cc2)CCS3(=O)=O)c1 | 180 to 182
66 | CCCCCCCCC#CCC#CCC#CCS(=O)(=O)CC(=O)OC | 69
67 | O=[N+]([O-])c1ccc2nc3c(nc2c1)OCC1CCCCN31 (configuration not stated) | 151 to 154
68 | COc1ccc(-n2nnc(-c3ccc(Cl)cc3F)c2N)cc1 | 148 to 150
69 | c1ccc(C(c2ccccc2)(c2ccns2)n2cncn2)cc1 | 235 to 240
70 | NC(=O)C1=NN(c2cccc(COCC3CCCCC3)c2)C(c2ccccc2F)N1 (configuration not stated) | 148 to 149
71 | CCOC(=O)C1(NC(=O)c2ccc3c(Cl)cnc(Cl)c3c2)CCCC1 | 178 to 180
72 | COCCc1nc2c(N)nc3ccccc3c2n1CCCNC(=O)c1ccccc1 | 183 to 186
73 | O=c1nc(-c2ccccc2)c2cc(Cl)ccc2n1CC(F)(F)F | 184 to 185
74 | Cc1c(F)c(N2CCNCC2)c(F)c2c1c(=O)c(C(=O)O)cn2C1CC1 | 205 to 206
75 | CCCc1nc2c(N)nc3cc(OCCCNC(=O)NS(=O)(=O)c4ccc(F)cc4)ccc3c2n1CC(C)C | 194 to 198

Row | SMILES | melting point [°C]
76 | COc1cccc(Nc2cnc3c(NCc4ccccc4)nc(NCCO)nc3c2)c1 | 110 to 111
77 | COc1cc(C=CC2=CC(=O)C(C)(C)O2)cc(OC)c1OC | 149 to 150
78 | CCOC(=O)Cc1ccccc1N[C@@H](CCC(N)=O)C(=O)O | 171 to 172
79 | CCCCN(CCCC)c1ccc(C=Cc2ccc(C=CC3=C(C#N)C(=C(C#N)C#N)OC3(c3ccccc3)C(F)(F)F)s2)c(OCc2ccccc2)c1 (configuration not stated) | 196 to 197
80 | O=C(O)Cc1cc(=O)c(O)cn1Cc1ccccc1 | 231 to 235
81 | CCCc1c(OCc2cccc(C(=O)OCC)c2OCC)ccc(C(C)=O)c1O | 59 to 62
82 | CN1CCN(c2cc(Cl)cc3c2c(=O)n(Cc2cccc(Cl)c2)c(=O)n3Cc2ccccc2)CC1 | 165 to 169
83 | CCCc1c(OCC2(O)CCCCC2Sc2ccc(C(=O)CCC(=O)O)cc2)ccc(C(C)=O)c1O (configuration not stated) | 55 to 57
84 | COC(=O)c1c(C)oc2ccccc2c1=O | 116 to 118
85 | Cn1c2ccccc2c2nc3c(C=O)cccc3nc21 | 219 to 220
86 | CC1(C)CCC(C)(C)c2cc(-c3csc(C=CC(=O)O)c3)ccc21 | 182 to 185
87 | O=[N+]([O-])c1cccc(OCc2csc(-c3ccccc3)n2)c1 | 112 to 114
88 | O=C(O)CN1C(=O)C(c2ccccc2)SC1=S (configuration not stated) | 158 to 159
89 | O=C(c1ccc(SC2SCC(O)C(O)C2O)cc1)C(F)(F)F (configuration not stated) | 133 to 134
90 | CCOC(=O)C1C(C=C(Br)Br)C1(C)C (configuration not stated) | 110
91 | Cc1onc(-c2ccccc2)c1-c1ccc(S(=O)(=O)NCC(=O)O)cc1 | 242 to 248
92 | COc1cc(CCCC2SC(=O)NC2=O)ccc1OCc1nc(-c2ccco2)oc1C (configuration not stated) | 109 to 110
93 | CNc1cc(S(=O)(=O)c2ccc(N)cc2)cc(Br)n1 | 171 to 173
94 | COCCCc1cc(Cl)cc2nc(Cc3ccccc3Cl)oc12 | 49 to 51
95 | CC(=NOCCO)c1ccc(S(=O)(=O)c2ccccc2)cc1 | 87 to 88
96 | Cc1cc(C)c(NC(=O)N(Cc2ccccc2)CC2(c3ccccc3)CCCC2)c(C)c1 | 212 to 214
97 | O=CN1CCN(C[C@H](O)COc2cccc3[nH]ccc23)CC1 | 106 to 107
